Laboratory results reported in patent EP4810052A2, “HCRHR2 SELECTIVE POLYPEPTIDES” (Gubra A/S, priority 2023, dated 2026).
Like-named read-outs stand apart in the source and are kept apart here. Starred links: 1 amine or outer side, 2 acyl side, 3 side chain; linkers in the order of their positions; H or OH if unused. Non-standard residues stand in square brackets, D forms with d. Residues, ends and D or L forms follow the SMILES beside them. Groups on a side chain read outwards from the residue. *: point of attachment. C20 diacid = O=C(O)CCCCCCCCCCCCCCCCCCC(=O)*; γGlu = O=C(O)[C@H](CCC(=O)[*:2])N[*:1]; NMeI = CC[C@H](C)[C@H](NC)C(=O)O; Nle = CCCC[C@H](N)C(=O)O; AEEA = NCCOCCOCC(=O)O; Aib = CC(C)(N)C(=O)O

How the values were obtained:
[1] = system: pCRHR1; assay: cAMP potency, transiently transfected CHO-K1 cells, pCRHR1; assay type: cell-based, pig; settings: transiently transfected CHO-K1, average n=3; read-out: Transient cell system EC50 (nM) pCRHR 1
Procedure: (§1) Selected peptides were tested for potency on different species (mouse, rat, porcine) using transiently transfected CHO-K1 cells using the general procedure.

[2] = target: T1, hCRHR2b (Homo sapiens, UniProt Q13324); assay: cAMP potency, transiently transfected CHO-K1 cells, hCRHR2b; assay type: cell-based; settings: transiently transfected CHO-K1, average n=3; read-out: Transient cell system EC50 (nM) hCRHR 2b
T1 construct: DYK (FLAG); host or cells: CHO-K1, transiently transfected
T1 sequence (Q13324 1-438 isoform Q13324-2): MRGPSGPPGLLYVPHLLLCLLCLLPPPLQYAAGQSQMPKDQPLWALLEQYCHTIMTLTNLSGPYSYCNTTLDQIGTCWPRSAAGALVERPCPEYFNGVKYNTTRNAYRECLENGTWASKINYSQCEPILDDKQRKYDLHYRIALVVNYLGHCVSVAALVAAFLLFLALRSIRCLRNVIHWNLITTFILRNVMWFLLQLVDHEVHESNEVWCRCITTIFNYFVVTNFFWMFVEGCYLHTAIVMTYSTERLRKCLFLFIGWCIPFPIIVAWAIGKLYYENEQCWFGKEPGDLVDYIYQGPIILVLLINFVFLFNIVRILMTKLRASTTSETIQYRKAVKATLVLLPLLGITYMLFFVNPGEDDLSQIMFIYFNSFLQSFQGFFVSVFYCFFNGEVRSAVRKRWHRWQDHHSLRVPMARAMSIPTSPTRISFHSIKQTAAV

[3] = target: T2, rCRHR2 (Rattus norvegicus, UniProt P47866); assay: cAMP potency, transiently transfected CHO-K1 cells, rCRHR2; assay type: cell-based; settings: transiently transfected CHO-K1, average n=3; read-out: Transient cell system EC50 (nM) rCRHR 2
T2 construct: DYK (FLAG); host or cells: CHO-K1, transiently transfected
T2 sequence (P47866 whole entry): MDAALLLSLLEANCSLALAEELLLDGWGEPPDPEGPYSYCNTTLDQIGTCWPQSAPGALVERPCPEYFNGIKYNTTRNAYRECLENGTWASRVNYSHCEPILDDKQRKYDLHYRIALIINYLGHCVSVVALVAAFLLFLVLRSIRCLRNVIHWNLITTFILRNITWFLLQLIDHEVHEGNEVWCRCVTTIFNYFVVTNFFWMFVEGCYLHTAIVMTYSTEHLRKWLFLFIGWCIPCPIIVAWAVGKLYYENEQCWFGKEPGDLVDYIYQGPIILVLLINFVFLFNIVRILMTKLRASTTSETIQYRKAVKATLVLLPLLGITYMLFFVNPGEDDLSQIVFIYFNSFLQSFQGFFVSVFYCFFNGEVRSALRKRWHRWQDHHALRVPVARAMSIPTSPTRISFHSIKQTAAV
Procedure: as §1

[4] = system: pCRHR2; assay: cAMP potency, transiently transfected CHO-K1 cells, pCRHR2; assay type: cell-based, pig; settings: transiently transfected CHO-K1, average n=3; read-out: Transient cell system EC50 (nM) pCR HR2
Procedure: as §1

[5] = target: T3, mCRHR2 (Mus musculus, UniProt Q60748); assay: cAMP potency, transiently transfected CHO-K1 cells, mCRHR2; assay type: cell-based; settings: transiently transfected CHO-K1, average n=3; read-out: Transient cell system EC50 (nM) mCRH R2
T3 construct: DYK (FLAG); host or cells: CHO-K1, transiently transfected
T3 sequence (Q60748 1-431 isoform Q60748-2): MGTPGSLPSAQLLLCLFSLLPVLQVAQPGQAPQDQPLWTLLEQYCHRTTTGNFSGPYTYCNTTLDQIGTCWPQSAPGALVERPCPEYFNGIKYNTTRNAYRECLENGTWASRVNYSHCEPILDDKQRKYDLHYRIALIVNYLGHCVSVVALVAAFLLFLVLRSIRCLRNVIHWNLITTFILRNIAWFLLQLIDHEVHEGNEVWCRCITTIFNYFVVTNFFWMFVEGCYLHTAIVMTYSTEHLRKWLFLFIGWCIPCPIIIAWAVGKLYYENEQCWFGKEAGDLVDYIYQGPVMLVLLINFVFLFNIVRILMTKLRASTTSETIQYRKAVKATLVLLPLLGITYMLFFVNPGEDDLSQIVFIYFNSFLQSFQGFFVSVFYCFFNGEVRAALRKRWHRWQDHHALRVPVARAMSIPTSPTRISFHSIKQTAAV
Procedure: as §1

[6] = target: T4, hCRHR2a (Homo sapiens, UniProt Q13324); assay: cAMP potency, transiently transfected CHO-K1 cells, hCRHR2a; assay type: cell-based; settings: transiently transfected CHO-K1, average n=3; read-out: Transient cell system EC50 (nM) hCRHR 2a
T4 construct: DYK (FLAG); host or cells: CHO-K1, transiently transfected
T4 sequence (Q13324 1-411): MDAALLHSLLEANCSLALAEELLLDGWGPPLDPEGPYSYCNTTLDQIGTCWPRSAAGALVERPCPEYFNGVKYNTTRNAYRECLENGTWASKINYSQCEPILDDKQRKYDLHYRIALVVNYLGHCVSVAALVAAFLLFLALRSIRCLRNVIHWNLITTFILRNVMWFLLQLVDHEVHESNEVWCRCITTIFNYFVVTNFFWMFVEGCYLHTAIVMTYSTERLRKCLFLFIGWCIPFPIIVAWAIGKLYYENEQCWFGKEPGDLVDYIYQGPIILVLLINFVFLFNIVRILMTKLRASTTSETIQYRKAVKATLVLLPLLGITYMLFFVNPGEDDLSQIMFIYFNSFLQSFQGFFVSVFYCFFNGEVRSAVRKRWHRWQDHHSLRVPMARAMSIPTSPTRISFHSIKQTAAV

[7] = PK in minipigs; settings: male, Göttingen, minipig, in vivo; for half-life: iv, read-out: T½ (converted); for half-life / Cmax / Tmax: Pig; for bioavailability / Cmax / Tmax: sc; for Cmax / Tmax: 6.0 nmol/kg s.c
Procedure: Pharmacokinetics studies were determined in male Göttingen minipigs from Ellegaard Göttingen Minipigs A/S. Animals were acclimatised for at least 7 days before placed on study. The minipigs had prior to study been surgically implanted with central venous catheters inserted which were used for blood sampling. Animals were housed under a 12/12 h dark-light cycle with ad libitum access to domestic water and animals were fed a commercially standard maintenance diet twice daily.
Test compounds where administrated either as a cassette or as a single compound. Test compounds were administrated by a single intravenous injection or short infusion (5-10 min) through the implanted catheter or a single subcutaneously injection. The subcutaneously injection was given in the mid neck between ear and scapula with a stopper on the needle, allowing 0.5 cm of the needle to be inserted.Plasma concentration-time profiles employing 12-16 sampling points were obtained from each animal. As an example, blood samples were collected on the following times: 0 (predose), 0.17, 0.33, 0.5, 1, 2, 5, 6, 24, 48, 72, 92, 168, 240 and 336 hrs post administration. Approximately 2 mL blood was drawn from the central catheter from each animal at each sampling point. Blood samples were taken in K2 or K3 EDTA tubes. Blood was kept on ice for maximum 30 min before centrifugation (10 min, 4°C, 2000 x g). Approximately 200 µL plasma samples was transferred to a Micronic tube and stored at -20° or lower.
Pharmacokinetics parameters were calculated by non-compartmental analysis (NCA) of the individual plasma concentrations-time profile from the animals. The log-linear trapezoidal method was used for estimation of AUC and AUMC. The terminal T½ was determined as In(2)/λz where λz is the first order rate constant as determined by the terminal log-linear part of the curve.
Plasma concentrations were measured by LC-MSMS using electrospray ionization and multiple reaction monitoring. Calibration standards and quality control (QC) samples were prepared in specie match matrix. 15 µL calibration standards, QC and study samples were extracted by protein precipitation using 60 µL methanol followed by addition of 45 µL milliQ water. Samples were shaken (800 rpm) at room temperature for 5 min before centrifugation (2570×g, 40 min, 4°C) and the supernatant was transferred to a LoBind PCR plate. Samples were analysed on a Thermo Triscend UHPLC system coupled to a Sciex API 6500+ mass spectrometer. Samples were subject to online SPE clean-up on a HLB column (1×50 mm, Waters) before loaded onto a Aeris Peptide XB C18 column (3.6 µm, 100 Å, 2×50 mm, Phenomenex) analytical column. The mobile phases consisted of acetonitrile and milliQ H2O both containing 0.1% V/V formic acid. The flow rate was 0.60 mL/min and the column was kept at room temperature.

Compound | EC50 [1] [nM] | EC50 [2] [nM] | EC50 [3] [nM] | EC50 [4] [nM] | EC50 [5] [nM] | EC50 [6] [nM] | half-life ([7]; 5.8 nmol/kg i.v.) [h] | bioavailability [7] [%] | Cmax [7] [nM] | Tmax [7] [h] | half-life ([7]; 4.6 nmol/kg i.v.) [h]
CCCC[C@H](NC(=O)[C@@H](NC(=O)[C@H](CCC(=O)O)NC(=O)[C@H](C)NC(=O)[C@H](CC(N)=O)NC(=O)C(C)(C)NC(=O)[C@H](CCCCNC(=O)COCCOCCNC(=O)COCCOCCNC(=O)CC[C@H](NC(=O)CC[C@H](NC(=O)CCCCCCCCCCCCCCCCCCC(=O)O)C(=O)O)C(=O)O)NC(=O)[C@H](C)NC(=O)[C@H](CCC(N)=O)NC(=O)[C@H](CCC(=O)O)NC(=O)[C@H](CCCNC(=N)N)NC(=O)[C@H](C)NC(=O)[C@H](C)NC(=O)[C@H](CCCNC(=N)N)NC(=O)[C@H](C)NC(=O)[C@H](CCCNC(=N)N)NC(=O)[C@H](C)NC(=O)[C@H](CCC(N)=O)NC(=O)[C@H](CO)NC(=O)[C@H](CC(C)C)NC(=O)[C@H](CC(C)C)NC(=O)[C@@H](NC(=O)[C@H](CCC(N)=O)NC(=O)[C@H](CC(C)C)NC(=O)[C@H](CC(C)C)NC(=O)CNC(=O)[C@@H](NC(=O)[C@@H]1CCCN1C(=O)[C@@H](NC(=O)[C@H](CC(=O)O)NC(=O)[C@H](CC(C)C)NC(=O)[C@H](CO)NC(=O)[C@H](CC(C)C)NC(=O)[C@@H](NC(=O)[C@@H]1CCCN1)C(C)C)C(C)C)[C@@H](C)CC)[C@@H](C)CC)[C@@H](C)CC)C(=O)N[C@@H](C)C(=O)N[C@@H](CCC(=O)O)C(=O)N[C@H](C(N)=O)C(C)C [SEQ ID NO: 238] (H-PVLSLDVPIGLLQILLSQARARAAREQAK([AEEA-AEEA-γGlu-γGlu-C20 diacid])[Aib]NAEI[Nle]AEV-NH2) | > 5000 | 0.016 | 0.067 | 0.015 | 0.0047 | 0.018 | 212 | 86 | 44 | 48 | 
CC[C@H](C)[C@H](NC)C(=O)N[C@H](C(=O)N[C@@H](CC(C)C)C(=O)N[C@@H](CO)C(=O)N[C@@H](CC(C)C)C(=O)N[C@@H](CC(=O)O)C(=O)N[C@H](C(=O)N1CCC[C@H]1C(=O)N[C@H](C(=O)NCC(=O)N[C@@H](CC(C)C)C(=O)N[C@@H](CC(C)C)C(=O)N[C@@H](CCC(N)=O)C(=O)N[C@H](C(=O)N[C@@H](CC(C)C)C(=O)N[C@@H](CC(C)C)C(=O)N[C@@H](CCC(=O)O)C(=O)N[C@@H](CCC(N)=O)C(=O)N[C@@H](C)C(=O)N[C@@H](CCCNC(=N)N)C(=O)N[C@@H](C)C(=O)N[C@@H](CCCNC(=N)N)C(=O)N[C@@H](C)C(=O)N[C@@H](C)C(=O)N[C@@H](CCCNC(=N)N)C(=O)N[C@@H](CCC(=O)O)C(=O)N[C@@H](CCC(N)=O)C(=O)N[C@@H](C)C(=O)N[C@@H](CCCCNC(=O)COCCOCCNC(=O)COCCOCCNC(=O)CC[C@H](NC(=O)CC[C@H](NC(=O)CCCCCCCCCCCCCCCCCCC(=O)O)C(=O)O)C(=O)O)C(=O)N[C@H](C(=O)N[C@@H](CC(N)=O)C(=O)NC(C)(C)C(=O)N[C@@H](CCC(=O)O)C(=O)N[C@H](C(=O)N[C@@H](CC(C)C)C(=O)N[C@@H](C)C(=O)N[C@@H](CCC(=O)O)C(=O)N[C@H](C(N)=O)C(C)C)[C@@H](C)CC)[C@@H](C)O)[C@@H](C)CC)[C@@H](C)CC)C(C)C)C(C)C [SEQ ID NO: 16] (H-[NMeI]VLSLDVPIGLLQILLEQARARAAREQAK([AEEA-AEEA-γGlu-γGlu-C20 diacid])TN[Aib]EILAEV-NH2) | > 5000 | 0.012 | 0.19 | 0.028 | 0.0049 | 0.025 |  | 66 | 35 | 48 | 208
